Entries after “also recorded” stand apart in the source; their conditions may differ. Like-named read-outs stand apart in the source and are kept apart here.
Assays:
Type in all cases: cell-based
hRUP38 = target: T1, hRUP38 (Homo sapiens, UniProt P49019); experiment: Adenylyl cyclase / cAMP Whole Cell assay in CHO cells stably transfected with hRUP38
T1 construct: expressed in transfected cells
Protocol: A modified Flash Plate™ Adenylyl Cyclase kit (New England Nuclear; Cat. No. SMP004A) was utilized for direct identification of candidate compounds as agonists to hRUP38 (Seq. Id. Nos. 1 & 2) or hRUP25 (Seq. Id. Nos. 3 & 4) in accordance with the following protocol:
CHO cells stably transfected with hRUP38 were harvested from flasks via non-enzymatic means. The cells were washed in PBS and resuspended in the manufacturer's Assay Buffer. […] To these wells, 100,000 cells in 50 μl of Assay Buffer were added and the mixture was then incubated for 30 minutes at room temperature, with gentle shaking. Following the incubation, 100 μl of Detection Buffer was added to each well, followed by incubation for 2-24 hours. Plates were counted in a Wallac MicroBeta™ plate reader using “Prot. #31” (as per manufacturer instructions).

hRUP25 = target: T2, hRUP25 (Homo sapiens, UniProt Q8TDS4); experiment: Adenylyl cyclase assay in CHO cells expressing hRUP25; details: FIG. 1 screening data
T2 construct: expressed in transfected cells; host or cells: CHO cells
T2 sequence (Q8TDS4 whole entry): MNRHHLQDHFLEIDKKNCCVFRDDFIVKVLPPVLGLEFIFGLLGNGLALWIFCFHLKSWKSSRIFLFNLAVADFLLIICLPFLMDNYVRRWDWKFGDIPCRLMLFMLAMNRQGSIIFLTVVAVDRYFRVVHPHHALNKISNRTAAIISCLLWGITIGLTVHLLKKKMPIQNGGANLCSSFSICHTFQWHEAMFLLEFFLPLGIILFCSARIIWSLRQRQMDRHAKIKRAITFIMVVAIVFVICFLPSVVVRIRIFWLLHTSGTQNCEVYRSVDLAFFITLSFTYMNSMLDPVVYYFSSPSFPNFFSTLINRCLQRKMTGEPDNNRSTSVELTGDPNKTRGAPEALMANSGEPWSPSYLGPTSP
Excerpt: FIG. 1. FIG. 1 presents screening data via adenylyl cyclase assay for hRUP38. […] 1-Isopropyl-1H-benzotriazole-5-carboxylic acid has no effect on CHO cells expressing hRUP25.
A modified Flash Plate™ Adenylyl Cyclase kit (New England Nuclear; Cat. No. SMP004A) was utilized for direct identification of candidate compounds as agonists to hRUP38 (Seq. Id. Nos. 1 & 2) or hRUP25 (Seq. Id. Nos. 3 & 4) in accordance with the following protocol: […]

primary human adipocytes = experiment: Inhibition of isoproterenol stimulated lipolysis in human subcutaneous adipocytes; details: isoproterenol 100 nM, adipocyte primary cultures from human subcutaneous fat, FIG. 2

T1 sequence (P49019 whole entry K94N/T173P/F198L/H253R/I317M/I346M): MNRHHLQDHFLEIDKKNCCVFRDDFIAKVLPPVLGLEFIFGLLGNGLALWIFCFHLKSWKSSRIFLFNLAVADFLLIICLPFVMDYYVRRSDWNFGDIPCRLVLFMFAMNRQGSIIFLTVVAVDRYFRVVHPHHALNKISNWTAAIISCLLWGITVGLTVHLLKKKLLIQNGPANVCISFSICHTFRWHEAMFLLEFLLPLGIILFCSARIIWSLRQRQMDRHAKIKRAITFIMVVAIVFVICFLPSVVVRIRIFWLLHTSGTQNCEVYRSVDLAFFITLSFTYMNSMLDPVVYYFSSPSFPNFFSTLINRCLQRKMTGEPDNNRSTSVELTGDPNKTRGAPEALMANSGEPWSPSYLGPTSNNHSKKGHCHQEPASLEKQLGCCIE

- EC50 (hRUP38; average of seven (7) trials, read-out: hRUP38 (EC50) cAMP Whole Cell): 388 nM
- EC50 (hRUP38; inhibition of forskolin stimulated cAMP, hRUP38-expressing CHO cells, read-out: EC50, adenylyl cyclase assay for hRUP38 (FIG. 1)): 166 nM
- effect on CHO cells expressing hRUP25 (hRUP25): no effect
SMILES: CC(C)n1nnc2cc(C(=O)O)ccc21 [Example 6.1, 1-Isopropyl-1H-benzotriazole-5-carboxylic acid]
- inhibition of isoproterenol stimulated lipolysis (primary human adipocytes): dose-dependent manner comparable to that of nicotinic acid; also recorded: dose-dependant manner comparable to that of nicotinic acid
